The record followed here is patent US20200325154A1, “ANTIBACTERIAL BIAROMATIC DERIVATIVES WITH OXETANE-3-YLOXY SUBSTITUTION” (priority 2016, published 2020).

SMILES strings stand for the structures. In brackets after ≈: the same amount, converted by molar mass.

Common to all, as to assay: Bacterial growth minimal inhibitory concentration (microdilution, cation-adjusted Mueller-Hinton Broth)
For orientation: In broth dilution the organism is exposed to a series of concentrations in liquid medium.

The subject of one assay is A. baumannii T6474. It counts as cell-based, Acinetobacter baumannii. As to conditions: for MIC: Acinetobacter baumannii, T6474, Table 1, multiply-resistant (quinolone-resistant) strain. On the procedure:
(§1) Minimal Inhibitory Concentrations (MICs; mg/L) were determined in cation-adjusted Mueller-Hinton Broth by a microdilution method following the description given in “Methods for Dilution Antimicrobial Susceptibility Tests for Bacteria that Grow Aerobically”, Approved standard, 7^1 ed., Clinical and Laboratory Standards Institute (CLSI) Document M7-A7, Wayne, Pa., USA (2006).
(§2) All Example compounds were tested against relevant Gram positive and Gram negative bacteria. […] Staphylococcus aureus A798 and Acinetobacter baumannii T6474 are multiply-resistant strains (in particular quinolone-resistant), whereas Moraxella catarrhalis A894 and Enterococcus faecalis ATCC29212 are quinolone-sensitive strains.

Another assay has as its system E. faecalis ATCC 29212. It counts as cell-based, Enterococcus faecalis. To be noted: quinolone-sensitive strain; for MIC: Enterococcus faecalis, ATCC29212, Table 1. On the procedure: as §1, §2
The next assay concerns M. catarrhalis A894. It counts as cell-based, Moraxella catarrhalis. As to conditions: quinolone-sensitive strain; for MIC: Moraxella catarrhalis, A894, Table 1. On the procedure: as §1, §2
A further assay has as its system S. aureus A798. The assay is classed as cell-based, Staphylococcus aureus. To be noted: for MIC: Staphylococcus aureus, A798, Table 1, multiply-resistant (quinolone-resistant) strain. On the procedure: as §1, §2
Setting [1] is: Table 2, comparison with Example 50 of WO 2014/170821, multiply-resistant strain.
The mark [2] stands for this setting: Table 2, comparison with Example 50 of WO 2014/170821.

On to `O=C1COc2ccc(N3C[C@H](CCNCc4cc(-c5nccc(OC6COC6)n5)c(O)cn4)OC3=O)nc2N1` [Example 15, 6-{(S)-5-[2-({5-hydroxy-4-[4-(oxetan-3-yloxy)-pyrimidin-2-yl]-pyridin-2-ylmethyl}-amino)-ethyl]-2-oxo-oxazolidin-3-yl}-4H-pyrido[3,2-b][1,4]oxazin-3-one], for which the MIC was 0.25 µg/mL (≈ 0.467 µM) in the assay on A. baumannii T6474, 0.25 µg/mL (≈ 0.467 µM) against E. faecalis ATCC 29212, at most 0.031 µg/mL in the assay with M. catarrhalis A894 and at most 0.031 µg/mL with S. aureus A798.
For the compound `O=C1COc2ccc(-n3cc(CCNCc4cc(-c5nccc(OC6COC6)n5)ccn4)oc3=O)nc2N1` [Example 13, 6-{5-[2-({4-[4-(oxetan-3-yloxy)-pyrimidin-2-yl]-pyridin-2-ylmethyl}-amino)-ethyl]-2-oxo-oxazol-3-yl}-4H-pyrido[3,2-b][1,4]oxazin-3-one], the MIC is 0.125 µg/mL (≈ 0.242 µM) against A. baumannii T6474, 0.5 µg/mL (≈ 0.966 µM) against E. faecalis ATCC 29212, at most 0.031 µg/mL with M. catarrhalis A894 and at most 0.031 µg/mL in the assay with S. aureus A798.
Turning to `O=C1COc2ccc(N3C[C@H](CCNCc4cc(-c5cc(OC6COC6)cnn5)ccn4)OC3=O)nc2N1` [Example 5, 6-{(S)-5-[2-({4-[5-(oxetan-3-yloxy)-pyridazin-3-yl]-pyridin-2-ylmethyl}-amino)-ethyl]-2-oxo-oxazolidin-3-yl}-4H-pyrido[3,2-b][1,4]oxazin-3-one], the MIC was 8 µg/mL (≈ 15.4 µM) with A. baumannii T6474, 8 µg/mL (≈ 15.4 µM) in the assay on E. faecalis ATCC 29212, 0.5 µg/mL (≈ 0.962 µM) against M. catarrhalis A894 and 8 µg/mL (≈ 15.4 µM) in the assay on S. aureus A798.
For `O=C1COc2ccc(-n3cc(CCNCc4cc(-c5cncc(OC6COC6)n5)ccn4)oc3=O)nc2N1` [Example 2, 6-{5-[2-({4-[6-(oxetan-3-yloxy)-pyrazin-2-yl]-pyridin-2-ylmethyl}-amino)-ethyl]-2-oxo-oxazol-3-yl}-4H-pyrido[3,2-b][1,4]oxazin-3-one], the MIC was 0.125 µg/mL (≈ 0.242 µM) in the assay with A. baumannii T6474, 0.25 µg/mL (≈ 0.483 µM) against E. faecalis ATCC 29212, at most 0.031 µg/mL with M. catarrhalis A894 and at most 0.031 µg/mL in the assay with S. aureus A798.
Take `O=C1COc2ccc(N3C[C@H](CCNCc4cccc(-c5cc(OC6COC6)cnn5)c4)OC3=O)nc2N1` [Example 8, 6-[(S)-5-(2-{3-[5-(oxetan-3-yloxy)-pyridazin-3-yl]-benzylamino}-ethyl)-2-oxo-oxazolidin-3-yl]-4H-pyrido[3,2-b][1,4]oxazin-3-one]: the MIC in the assay with A. baumannii T6474 was 1 µg/mL (≈ 1.93 µM); in the assay with E. faecalis ATCC 29212, 4 µg/mL (≈ 7.71 µM); against M. catarrhalis A894, 0.25 µg/mL (≈ 0.482 µM); in the assay with S. aureus A798 it was 0.5 µg/mL (≈ 0.964 µM).
The matching figures for `O=C1COc2ccc(N3C[C@H](CCNCc4cc(-c5cncc(OC6COC6)n5)c(O)cn4)OC3=O)nc2N1` [Example 14, 6-{(S)-5-[2-({5-hydroxy-4-[6-(oxetan-3-yloxy)-pyrazin-2-yl]-pyridin-2-ylmethyl}-amino)-ethyl]-2-oxo-oxazolidin-3-yl}-4H-pyrido[3,2-b][1,4]oxazin-3-one]: 4 µg/mL (≈ 7.47 µM), 4 µg/mL (≈ 7.47 µM), 0.5 µg/mL (≈ 0.934 µM) and 1 µg/mL (≈ 1.87 µM).
As to `O=C1COc2ccc(N3C[C@H](CCNCc4cccc(-c5cccc(OC6COC6)n5)c4)OC3=O)nc2N1` [Example 6, 6-[(S)-5-(2-{3-[6-(oxetan-3-yloxy)-pyridin-2-yl]-benzylamino}-ethyl)-2-oxo-oxazolidin-3-yl]-4H-pyrido[3,2-b][1,4]oxazin-3-one], the minimum inhibitory concentration (MIC) in the assay with A. baumannii T6474 was 0.25 µg/mL (≈ 0.483 µM); with E. faecalis ATCC 29212, 0.25 µg/mL (≈ 0.483 µM); in the assay on M. catarrhalis A894, at most 0.031 µg/mL; against S. aureus A798, at most 0.031 µg/mL.
For `O=C1COc2ccc(N3C[C@H](CCNCc4ccnc(-c5cncc(OC6COC6)n5)c4)OC3=O)nc2N1` [Example 7, 6-{(S)-5-[2-({2-[6-(oxetan-3-yloxy)-pyrazin-2-yl]-pyridin-4-ylmethyl}-amino)-ethyl]-2-oxo-oxazolidin-3-yl}-4H-pyrido[3,2-b][1,4]oxazin-3-one], the MIC against A. baumannii T6474 was 0.5 µg/mL (≈ 0.962 µM); with E. faecalis ATCC 29212, 0.5 µg/mL (≈ 0.962 µM); in the assay with M. catarrhalis A894 it was at most 0.031 µg/mL; with S. aureus A798, at most 0.031 µg/mL.
Turning to `O=C1CSc2ccc(N3C[C@H](CCNCc4cc(-c5nccc(OC6COC6)n5)ccn4)OC3=O)nc2N1` [Example 11, 6-{(S)-5-[2-({4-[4-(oxetan-3-yloxy)-pyrimidin-2-yl]-pyridin-2-ylmethyl}-amino)-ethyl]-2-oxo-oxazolidin-3-yl}-4H-pyrido[3,2-b][1,4]thiazin-3-one], the MIC in the assay on A. baumannii T6474 is 0.125 µg/mL (≈ 0.233 µM); with E. faecalis ATCC 29212, 0.125 µg/mL (≈ 0.233 µM); with M. catarrhalis A894, at most 0.031 µg/mL; against S. aureus A798 it was at most 0.031 µg/mL.
Regarding `O=C1CSc2ccc(N3C[C@H](CCNCc4cc(-c5nccc(OC6COC6)n5)ccn4)OC3=O)cc2N1` [Example 12, 6-{(S)-5-[2-({4-[4-(oxetan-3-yloxy)-pyrimidin-2-yl]-pyridin-2-ylmethyl}-amino)-ethyl]-2-oxo-oxazolidin-3-yl}-4H-benzo[1,4]thiazin-3-one], the MIC against A. baumannii T6474 was 0.25 µg/mL (≈ 0.468 µM); in the assay with E. faecalis ATCC 29212 it was 0.25 µg/mL (≈ 0.468 µM); against M. catarrhalis A894, at most 0.031 µg/mL; in the assay with S. aureus A798, at most 0.031 µg/mL.
With `O=C1COc2ccc(N3C[C@H](CCNCc4cc(-c5cncc(OC6COC6)n5)ccn4)OC3=O)nc2N1` [Example 1, 6-{(S)-5-[2-({4-[6-(oxetan-3-yloxy)-pyrazin-2-yl]-pyridin-2-ylmethyl}-amino)-ethyl]-2-oxo-oxazolidin-3-yl}-4H-pyrido[3,2-b][1,4]oxazin-3-one], the MIC against A. baumannii T6474 was 0.125 µg/mL (≈ 0.241 µM); against E. faecalis ATCC 29212, 0.25 µg/mL (≈ 0.481 µM); with M. catarrhalis A894, at most 0.031 µg/mL; with S. aureus A798, at most 0.031 µg/mL.
Turning to `O=C1COc2ccc(N3C[C@H](CCNCc4nccc(-c5cncc(OC6COC6)n5)c4O)OC3=O)nc2N1` [Example 16, 6-{(S)-5-[2-({3-Hydroxy-4-[6-(oxetan-3-yloxy)-pyrazin-2-yl]-pyridin-2-ylmethyl}-amino)-ethyl]-2-oxo-oxazolidin-3-yl}-4H-pyrido[3,2-b][1,4]oxazin-3-one], the MIC in the assay with A. baumannii T6474 amounted to 1 µg/mL (≈ 1.87 µM); in the assay on E. faecalis ATCC 29212 it was 2 µg/mL (≈ 3.73 µM); with M. catarrhalis A894 it was 0.25 µg/mL (≈ 0.467 µM); in the assay with S. aureus A798, 0.25 µg/mL (≈ 0.467 µM).
For `O=C1COc2ccc(N3C[C@H](CCNCc4cc(-c5cc(OC6COC6)ccn5)ccn4)OC3=O)nc2N1` [Example 3, 6-[(S)-5-(2-{[4-(oxetan-3-yloxy)-[2,4′]bipyridinyl-2′-ylmethyl]-amino}-ethyl)-2-oxo-oxazolidin-3-yl]-4H-pyrido[3,2-b][1,4]oxazin-3-one], the MIC against A. baumannii T6474 was determined as 1 µg/mL (≈ 1.93 µM); in the assay on E. faecalis ATCC 29212, 1 µg/mL (≈ 1.93 µM); with M. catarrhalis A894, 0.25 µg/mL (≈ 0.482 µM); in the assay with S. aureus A798, 1 µg/mL (≈ 1.93 µM).
`O=C1COc2ccc(N3C[C@H](CCNCc4cccc(-c5cccc(OC6COC6)c5)c4)OC3=O)nc2N1` [Example 9, 6-[(S)-5-(2-{[3′-(oxetan-3-yloxy)-biphenyl-3-ylmethyl]-amino}-ethyl)-2-oxo-oxazolidin-3-yl]-4H-pyrido[3,2-b][1,4]oxazin-3-one]: the MIC in the assay with A. baumannii T6474 is 1 µg/mL (≈ 1.94 µM); with E. faecalis ATCC 29212, 0.5 µg/mL (≈ 0.968 µM); with M. catarrhalis A894, at most 0.031 µg/mL; in the assay on S. aureus A798, 0.125 µg/mL (≈ 0.242 µM). The “MIC for A. baumannii T6474” value in the assay with A. baumannii T6474 (setting [1]) is 1 mg/L. In addition, in the assay with E. faecalis ATCC 29212 (setting [2]), the “MIC for E. faecalis ATCC 29212” value was found to be 0.5 mg/L. The “MIC for M. catarrhalis A894” value with M. catarrhalis A894 (setting [2]) is at most 0.031 mg/L. Besides, in the assay on S. aureus A798 (setting [1]), the “MIC for S. aureus A798” value is recorded as 0.125 mg/L.
As for `O=C1COc2ccc(N3C[C@H](CCNCc4cc(-c5nccc(OC6COC6)n5)ccn4)OC3=O)nc2N1` [Example 4, 6-{(S)-5-[2-({4-[4-(oxetan-3-yloxy)-pyrimidin-2-yl]-pyridin-2-ylmethyl}-amino)-ethyl]-2-oxo-oxazolidin-3-yl}-4H-pyrido[3,2-b][1,4]oxazin-3-one], the MIC was 0.125 µg/mL (≈ 0.241 µM) with A. baumannii T6474, 0.25 µg/mL (≈ 0.481 µM) against E. faecalis ATCC 29212, at most 0.031 µg/mL in the assay on M. catarrhalis A894 and at most 0.031 µg/mL against S. aureus A798.
Consider `O=C1COc2ccc(N3C[C@@H](CCNCc4cc(-c5nccc(OC6COC6)n5)ccn4)OC3=O)nc2N1` [Example 10, 6-{(R)-5-[2-({4-[4-(oxetan-3-yloxy)-pyrimidin-2-yl]-pyridin-2-ylmethyl}-amino)-ethyl]-2-oxo-oxazolidin-3-yl}-4H-pyrido[3,2-b][1,4]oxazin-3-one], for which the MIC was 0.25 µg/mL (≈ 0.481 µM) with A. baumannii T6474, 0.5 µg/mL (≈ 0.962 µM) in the assay on E. faecalis ATCC 29212, 0.063 µg/mL (≈ 0.121 µM) in the assay with M. catarrhalis A894 and 0.25 µg/mL (≈ 0.481 µM) in the assay with S. aureus A798.

The MIC is the least concentration at which growth counts as inhibited.
